Assay results as given in PubChem BioAssay (NCI).
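Exposure lasted 48 hours, with cells grown in 96-well plates and compounds tested at five concentrations. GI50: concentration for 50% inhibition of growth. Definition used: TGI = concentration required for complete inhibition of growth.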

How the values were obtained:
Assay in all cases: inhibition of tumour cell growth, NCI panel, 48 h
SNB-19 CNS = test system: SNB-19 CNS
HOP-92 NSCLC = test system: HOP-92 NSCLC
OVCAR-3 ovarian = test system: OVCAR-3 ovarian
HT29 colon = test system: HT29 colon
K-562 leukemia = test system: K-562 leukemia
SK-MEL-5 melanoma = test system: SK-MEL-5 melanoma
A498 renal = test system: A498 renal
NCI-H226 lung = test system: NCI-H226 lung
DU-145 prostate = test system: DU-145 prostate
UO-31 renal = test system: UO-31 renal
UACC-257 melanoma = test system: UACC-257 melanoma
COLO 205 colon = test system: COLO 205 colon
786-0 renal = test system: 786-0 renal
IGROV1 ovarian = test system: IGROV1 ovarian
SNB-75 CNS = test system: SNB-75 CNS
M14 melanoma = test system: M14 melanoma
CAKI-1 renal = test system: CAKI-1 renal
NCI/ADR-RES ovarian = test system: NCI/ADR-RES ovarian
HOP-62 NSCLC = test system: HOP-62 NSCLC
HL-60(TB) leukemia = test system: HL-60(TB) leukemia
UACC-62 melanoma = test system: UACC-62 melanoma
RXF 393 renal = test system: RXF 393 renal
MDA-MB-435 = test system: MDA-MB-435
NCI-H23 lung = test system: NCI-H23 lung
SK-MEL-28 melanoma = test system: SK-MEL-28 melanoma
KM12 colon = test system: KM12 colon
LOX IMVI melanoma = test system: LOX IMVI melanoma
SW-620 colon = test system: SW-620 colon
HCT-116 colon = test system: HCT-116 colon
SR leukemia = test system: SR leukemia
MCF7 breast = test system: MCF7 breast
MDA-MB-231 breast = test system: MDA-MB-231 breast
RPMI-8226 leukemia = test system: RPMI-8226 leukemia
TK-10 renal = test system: TK-10 renal
EKVX NSCLC = test system: EKVX NSCLC
SK-OV-3 ovarian = test system: SK-OV-3 ovarian
CCRF-CEM leukemia = test system: CCRF-CEM leukemia
T-47D breast = test system: T-47D breast
HCT-15 colon = test system: HCT-15 colon
HCC-2998 colon = test system: HCC-2998 colon
SN12C renal = test system: SN12C renal
ACHN renal = test system: ACHN renal
NCI-H460 lung = test system: NCI-H460 lung
OVCAR-5 ovarian = test system: OVCAR-5 ovarian
OVCAR-4 ovarian = test system: OVCAR-4 ovarian
SF-539 CNS = test system: SF-539 CNS
MOLT-4 leukemia = test system: MOLT-4 leukemia
NCI-H522 lung = test system: NCI-H522 lung
SF-295 CNS = test system: SF-295 CNS
HS 578T breast = test system: HS 578T breast
U251 CNS = test system: U251 CNS
BT-549 breast = test system: BT-549 breast
MALME-3M melanoma = test system: MALME-3M melanoma
OVCAR-8 ovarian = test system: OVCAR-8 ovarian
PC-3 prostate = test system: PC-3 prostate
A549 NSCLC = test system: A549 NSCLC
SF-268 CNS = test system: SF-268 CNS
SK-MEL-2 melanoma = test system: SK-MEL-2 melanoma

With `CNC(=O)N(C1=NCC(C)S1)c1ccc(C)c(C)c1` (centres undefined) the TGI (SNB-19 CNS) was > 100 µM, the TGI (HOP-92 NSCLC) was > 29.5 µM and the TGI (OVCAR-3 ovarian) was 8.4 µM. The TGI (HT29 colon) was 12.7 µM, the TGI (K-562 leukemia) was > 20.1 µM and the TGI (SK-MEL-5 melanoma) was 19.1 µM. The TGI (A498 renal) was 17 µM, the TGI (NCI-H226 lung) was > 100 µM and the TGI (DU-145 prostate) was > 100 µM. For the same compound, the TGI (UO-31 renal) was > 78.7 µM, the TGI (UACC-257 melanoma) was > 78.1 µM and the TGI (COLO 205 colon) was > 44.6 µM. The TGI (786-0 renal) was > 48.8 µM, the TGI (IGROV1 ovarian) was > 100 µM and the TGI (SNB-75 CNS) was > 24.7 µM. For the same compound, the TGI (M14 melanoma) was > 42.3 µM, the TGI (CAKI-1 renal) was 20.6 µM and the TGI (NCI/ADR-RES ovarian) was > 20.4 µM. For the same compound, the TGI (HOP-62 NSCLC) was > 100 µM, the TGI (HL-60(TB) leukemia) was 4.1 µM and the TGI (UACC-62 melanoma) was > 100 µM. For the same compound, the TGI (RXF 393 renal) was 8.31 µM, the TGI (MDA-MB-435) was 3.49 µM and the TGI (NCI-H23 lung) was > 100 µM. The TGI (SK-MEL-28 melanoma) was > 92.8 µM, the TGI (KM12 colon) was > 55.7 µM and the TGI (LOX IMVI melanoma) was > 48.5 µM. The TGI (SW-620 colon) was > 100 µM, the TGI (HCT-116 colon) was > 76.8 µM and the TGI (SR leukemia) was > 71.7 µM. For the same compound, the TGI (MCF7 breast) was 26.6 µM, the TGI (MDA-MB-231 breast) was > 100 µM and the TGI (RPMI-8226 leukemia) was 15.1 µM. For the same compound, the TGI (TK-10 renal) was > 68.2 µM, the TGI (EKVX NSCLC) was 70.4 µM and the TGI (SK-OV-3 ovarian) was > 93 µM. For the same compound, the TGI (CCRF-CEM leukemia) was > 62.8 µM, the TGI (T-47D breast) was > 100 µM and the TGI (HCT-15 colon) was > 54 µM. The TGI (HCC-2998 colon) was 24.1 µM, the TGI (SN12C renal) was > 87.2 µM and the TGI (ACHN renal) was > 76.5 µM. For the same compound, the TGI (NCI-H460 lung) was 42.6 µM, the TGI (OVCAR-5 ovarian) was > 100 µM and the TGI (OVCAR-4 ovarian) was > 100 µM. The TGI (SF-539 CNS) was > 25.6 µM, the TGI (MOLT-4 leukemia) was > 59.2 µM and the TGI (NCI-H522 lung) was 17.1 µM. The TGI (SF-295 CNS) was > 73.6 µM, the TGI (HS 578T breast) was > 100 µM and the TGI (U251 CNS) was > 36.8 µM. For the same compound, the TGI (BT-549 breast) was > 100 µM, the TGI (MALME-3M melanoma) was 55.2 µM and the TGI (OVCAR-8 ovarian) was 45.7 µM. The TGI (PC-3 prostate) was > 55 µM, the TGI (A549 NSCLC) was > 100 µM and the TGI (SF-268 CNS) was 40.6 µM. The TGI (SK-MEL-2 melanoma) was 15.5 µM.

For `COc1cccc(/C=N/Nc2ncnc3c2cnn3-c2cccc(OC)c2)c1`, the GI50 (SNB-19 CNS) was > 25 µM, the TGI (SNB-19 CNS) was > 25 µM and the GI50 (HOP-92 NSCLC) was > 25 µM. The TGI (HOP-92 NSCLC) was > 25 µM, the GI50 (OVCAR-3 ovarian) was > 25 µM and the TGI (OVCAR-3 ovarian) was > 25 µM. For the same compound, the GI50 (HT29 colon) was > 25 µM, the TGI (HT29 colon) was > 25 µM and the GI50 (K-562 leukemia) was > 25 µM. The TGI (K-562 leukemia) was > 25 µM, the GI50 (SK-MEL-5 melanoma) was > 25 µM and the TGI (SK-MEL-5 melanoma) was > 25 µM. For the same compound, the GI50 (A498 renal) was > 25 µM, the TGI (A498 renal) was > 25 µM and the GI50 (NCI-H226 lung) was > 25 µM. For the same compound, the TGI (NCI-H226 lung) was > 25 µM, the GI50 (DU-145 prostate) was > 25 µM and the TGI (DU-145 prostate) was > 25 µM. The GI50 (UO-31 renal) was > 25 µM, the TGI (UO-31 renal) was > 25 µM and the GI50 (UACC-257 melanoma) was > 25 µM. For the same compound, the TGI (UACC-257 melanoma) was > 25 µM, the GI50 (COLO 205 colon) was > 25 µM and the TGI (COLO 205 colon) was > 25 µM. For the same compound, the GI50 (786-0 renal) was > 25 µM, the TGI (786-0 renal) was > 25 µM and the GI50 (IGROV1 ovarian) was > 25 µM. For the same compound, the TGI (IGROV1 ovarian) was > 25 µM, the GI50 (SNB-75 CNS) was > 25 µM and the TGI (SNB-75 CNS) was > 25 µM. The GI50 (M14 melanoma) was > 25 µM, the TGI (M14 melanoma) was > 25 µM and the GI50 (CAKI-1 renal) was > 25 µM. For the same compound, the TGI (CAKI-1 renal) was > 25 µM, the GI50 (NCI/ADR-RES ovarian) was > 25 µM and the TGI (NCI/ADR-RES ovarian) was > 25 µM. For the same compound, the GI50 (HOP-62 NSCLC) was > 25 µM, the TGI (HOP-62 NSCLC) was > 25 µM and the GI50 (HL-60(TB) leukemia) was > 25 µM. The TGI (HL-60(TB) leukemia) was > 25 µM, the GI50 (UACC-62 melanoma) was > 25 µM and the TGI (UACC-62 melanoma) was > 25 µM. The GI50 (RXF 393 renal) was > 25 µM, the TGI (RXF 393 renal) was > 25 µM and the GI50 (MDA-MB-435) was > 25 µM. The TGI (MDA-MB-435) was > 25 µM, the GI50 (NCI-H23 lung) was > 25 µM and the TGI (NCI-H23 lung) was > 25 µM. For the same compound, the GI50 (SK-MEL-28 melanoma) was > 25 µM, the TGI (SK-MEL-28 melanoma) was > 25 µM and the GI50 (KM12 colon) was > 25 µM. The TGI (KM12 colon) was > 25 µM, the GI50 (LOX IMVI melanoma) was > 25 µM and the TGI (LOX IMVI melanoma) was > 25 µM. For the same compound, the GI50 (SW-620 colon) was > 25 µM, the TGI (SW-620 colon) was > 25 µM and the GI50 (HCT-116 colon) was > 25 µM. For the same compound, the TGI (HCT-116 colon) was > 25 µM, the GI50 (SR leukemia) was > 25 µM and the TGI (SR leukemia) was > 25 µM. For the same compound, the GI50 (MCF7 breast) was > 25 µM, the TGI (MCF7 breast) was > 25 µM and the GI50 (MDA-MB-231 breast) was > 25 µM. For the same compound, the TGI (MDA-MB-231 breast) was > 25 µM, the GI50 (RPMI-8226 leukemia) was > 25 µM and the TGI (RPMI-8226 leukemia) was > 25 µM. The GI50 (TK-10 renal) was > 25 µM, the TGI (TK-10 renal) was > 25 µM and the GI50 (EKVX NSCLC) was > 25 µM. For the same compound, the TGI (EKVX NSCLC) was > 25 µM, the GI50 (SK-OV-3 ovarian) was > 25 µM and the TGI (SK-OV-3 ovarian) was > 25 µM. The GI50 (CCRF-CEM leukemia) was > 25 µM, the TGI (CCRF-CEM leukemia) was > 25 µM and the GI50 (T-47D breast) was > 25 µM. For the same compound, the TGI (T-47D breast) was > 25 µM, the GI50 (HCT-15 colon) was > 25 µM and the TGI (HCT-15 colon) was > 25 µM. For the same compound, the GI50 (HCC-2998 colon) was > 25 µM, the TGI (HCC-2998 colon) was > 25 µM and the GI50 (SN12C renal) was > 25 µM. The TGI (SN12C renal) was > 25 µM, the GI50 (ACHN renal) was > 25 µM and the TGI (ACHN renal) was > 25 µM. For the same compound, the GI50 (NCI-H460 lung) was > 25 µM, the TGI (NCI-H460 lung) was > 25 µM and the GI50 (OVCAR-5 ovarian) was > 25 µM. The TGI (OVCAR-5 ovarian) was > 25 µM, the GI50 (OVCAR-4 ovarian) was > 25 µM and the TGI (OVCAR-4 ovarian) was > 25 µM. The GI50 (SF-539 CNS) was > 25 µM, the TGI (SF-539 CNS) was > 25 µM and the GI50 (MOLT-4 leukemia) was > 25 µM. The TGI (MOLT-4 leukemia) was > 25 µM, the GI50 (NCI-H522 lung) was > 25 µM and the TGI (NCI-H522 lung) was > 25 µM. For the same compound, the GI50 (SF-295 CNS) was > 25 µM, the TGI (SF-295 CNS) was > 25 µM and the GI50 (HS 578T breast) was > 10.6 µM. For the same compound, the TGI (HS 578T breast) was > 25 µM, the GI50 (U251 CNS) was > 25 µM and the TGI (U251 CNS) was > 25 µM. For the same compound, the GI50 (BT-549 breast) was > 25 µM, the TGI (BT-549 breast) was > 25 µM and the GI50 (MALME-3M melanoma) was > 25 µM. The TGI (MALME-3M melanoma) was > 25 µM, the GI50 (OVCAR-8 ovarian) was > 25 µM and the TGI (OVCAR-8 ovarian) was > 25 µM. The GI50 (PC-3 prostate) was > 25 µM, the TGI (PC-3 prostate) was > 25 µM and the GI50 (A549 NSCLC) was > 25 µM. The TGI (A549 NSCLC) was > 25 µM, the GI50 (SF-268 CNS) was > 25 µM and the TGI (SF-268 CNS) was > 25 µM. For the same compound, the GI50 (SK-MEL-2 melanoma) was > 25 µM and the TGI (SK-MEL-2 melanoma) was > 25 µM.
